The source of these data is US12018001B2, “Pyrimidine cyclohexenyl glucocorticoid receptor modulators” (priority 2018, dated 2024).

The target in the first experiment is T1, glucocorticoid receptor (Homo sapiens, UniProt P04150).
T1 construct: host or cells: HepG2
T1 sequence (P04150 1-777): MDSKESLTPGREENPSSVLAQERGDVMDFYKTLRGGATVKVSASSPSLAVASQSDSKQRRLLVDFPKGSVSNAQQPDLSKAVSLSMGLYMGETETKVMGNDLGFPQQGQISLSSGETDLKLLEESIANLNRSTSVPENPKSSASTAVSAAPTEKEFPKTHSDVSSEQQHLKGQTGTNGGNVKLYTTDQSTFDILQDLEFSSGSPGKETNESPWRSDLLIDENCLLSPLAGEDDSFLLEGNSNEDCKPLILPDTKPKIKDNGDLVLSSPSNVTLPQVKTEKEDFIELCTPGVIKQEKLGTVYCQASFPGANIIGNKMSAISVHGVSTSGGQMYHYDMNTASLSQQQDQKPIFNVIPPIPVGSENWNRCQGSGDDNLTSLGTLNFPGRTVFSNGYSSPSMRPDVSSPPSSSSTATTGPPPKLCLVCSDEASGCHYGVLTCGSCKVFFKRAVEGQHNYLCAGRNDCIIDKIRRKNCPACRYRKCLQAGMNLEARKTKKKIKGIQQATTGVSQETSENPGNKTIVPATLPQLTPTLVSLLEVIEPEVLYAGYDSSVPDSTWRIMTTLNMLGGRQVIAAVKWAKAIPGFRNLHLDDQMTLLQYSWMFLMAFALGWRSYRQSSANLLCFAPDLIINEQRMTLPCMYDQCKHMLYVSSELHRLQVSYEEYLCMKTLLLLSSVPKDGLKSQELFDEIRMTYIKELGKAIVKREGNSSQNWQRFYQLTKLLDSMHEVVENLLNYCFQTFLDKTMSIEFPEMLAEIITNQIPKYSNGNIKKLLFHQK
Put plainly: Hep G2 TAT assay: induction of TAT by dexamethasone in HepG2 cells. It is filed as cell-based. How it is done: Glucocorticoid mediated activation of TAT occurs by transactivation of glucocorticoid response elements in the TAT promoter by glucocorticoid receptor-agonist complex.
TAT activity was measured as outlined in the literature by A. Ali et al., J. Med. Chem., 2004, 47, 2441-2452.
HepG2 cells were cultured using MEME media supplemented with 10% (v/v) foetal bovine serum; 2 mM L-glutamine and 1% (v/v) NEAA at 37° C., 5%/95% (v/v) CO2/air. The HepG2 cells were counted and adjusted to yield a density of 0.125×10^6 cells/ml in RPMI 1640 without phenol red, 10% (v/v) charcoal stripped FBS, 2 mM L-glutamine and seeded at 25,000 cells/well in 200 μl into 96 well, sterile, tissue culture micro titre plates, and incubated at 37° C., 5% CO2 for 24 hours
Growth media was removed and replaced with assay media {RPMI 1640 without phenol red, 2 mM L-glutamine+10 μM forskolin}. […] Compounds were serially half log diluted in 100% (v/v) dimethylsulphoxide from a 10 mM stock.
HepG2 cells were then lysed with 30 μl of cell lysis buffer containing a protease inhibitor cocktail for 15 minutes at 4° C. 155 μl of substrate mixture was then added containing 5.4 mM Tyrosine sodium salt, 10.8 mM alpha ketoglutarate and 0.06 mM pyridoxal 5′ phosphate in 0.1 M potassium phosphate buffer (pH 7.4). After 2 hours incubation at 37° C. the reaction was terminated by the addition of 15 μl of 10 M aqueous potassium hydroxide solution, and the plates incubated for a further 30 minutes at 37° C. The TAT activity product was measured by absorbance at λ 340 nm.
[compound] and fitting the data to a 4 parameter logistic equation.
On to `N#Cc1ccc(C2=CC[C@H](c3[nH]c(=O)[nH]c(=O)c3Cc3ccccc3)CC2)c(Cl)c1` (single isomer, unassigned) [Example 39], for which the inhibition constant Ki is 69 nM.

Compound `Cc1ncccc1C1=CCC(c2[nH]c(=O)[nH]c(=O)c2Cc2ccccc2)CC1` (stereo not drawn) [Example 25] displayed a Ki of 100 nM.

Compound `O=c1[nH]c(C2CC=C(c3cccc(Cl)c3C(F)(F)F)CC2)c(Cc2ccccc2)c(=O)[nH]1` (stereo not drawn) [Example 35] gave a Ki of 59 nM.

`O=c1[nH]c(C2CC=C(c3ccccc3C(F)(F)F)CC2)c(Cc2ccccc2)c(=O)[nH]1` (stereo not drawn) [Example 11] gave a Ki of 14 nM.

`CC(C)Cn1nccc1C1=CCC(c2[nH]c(=O)[nH]c(=O)c2Cc2ccccc2)CC1` (stereo not drawn) [Example 62] gave a Ki of 884 nM.

`N#Cc1ccccc1C1=CCC(c2[nH]c(=O)[nH]c(=O)c2Cc2ccccc2)CC1` (stereo not drawn) [Example 5]: the Ki worked out at 120 nM.

Consider `Cc1ccc(F)cc1C1=CCC(c2[nH]c(=O)[nH]c(=O)c2Cc2ccccc2)CC1` (stereo not drawn) [Example 21], for which the affinity, expressed as Ki, was 270 nM.

In turn, `O=c1[nH]c([C@H]2CC=C(c3ccc(Cl)cc3C(F)(F)F)CC2)c(Cc2ccccc2)c(=O)[nH]1` (single isomer, unassigned) [Example 109] registered a Ki of 30 nM. This Ki is about 9-fold lower than that of the compound before.

With `COc1ccccc1C1=CCC(c2[nH]c(=O)[nH]c(=O)c2Cc2ccccc2)CC1` (stereo not drawn) [Example 18], the affinity corresponds to a Ki of 260 nM. This Ki lies about 8.7-fold higher than the previous one.

For the compound `CCOc1ccc(C2=CCC(c3[nH]c(=O)[nH]c(=O)c3Cc3ccccc3)CC2)c(F)c1Cl` (stereo not drawn) [Example 79], the affinity, expressed as Ki, was 530 nM. Compared with the last compound, the Ki is about 2-fold higher.

The compound `CCS(=O)(=O)c1ccc(C2=CCC(c3[nH]c(=O)[nH]c(=O)c3Cc3ccccc3)CC2)c(F)c1` (stereo not drawn) [Example 101] yielded a Ki of 65 nM.

Compound `O=c1[nH]c(C2CC=C(c3ccc(C(F)(F)F)nc3N3CCCC3)CC2)c(Cc2ccccc2)c(=O)[nH]1` (stereo not drawn) [Example 113] gave a Ki of 75 nM.

`O=c1[nH]c(C2CC=C(c3ccc(OCCO)cc3Cl)CC2)c(Cc2ccccc2)c(=O)[nH]1` (stereo not drawn) [Example 86] showed a Ki of 1160 nM. Against the preceding compound, the Ki is about 15-fold higher.

`CS(=O)(=O)c1ccc(C2=CCC(c3[nH]c(=O)[nH]c(=O)c3Cc3cccc(F)c3F)CC2)c(F)c1` (stereo not drawn) [Example 115, 5-(2,3-difluorobenzyl)-6-(2′-fluoro-4′-(methylsulfonyl)-2,3,4,5-tetrahydro-[1,1′-biphenyl]-4-yl)pyrimidine-2,4(1H,3H)-dione] registered a Ki of 85 nM.

In the case of `O=c1[nH]c(C2CC=C(c3ccc(OCC(F)(F)F)cc3Cl)CC2)c(Cc2ccccc2)c(=O)[nH]1` (stereo not drawn) [Example 87], the Ki amounted to 453 nM.

Regarding `O=c1[nH]c(C2CC=C(c3ccccc3OC(F)(F)F)CC2)c(Cc2ccccc2)c(=O)[nH]1` (stereo not drawn) [Example 26], the Ki was 50 nM.

`CCn1nccc1C1=CCC(c2[nH]c(=O)[nH]c(=O)c2Cc2ccccc2)CC1` (stereo not drawn) [Example 54]: the affinity, expressed as Ki, was 1360 nM.

`CNS(=O)(=O)c1ccc(C2=CCC(c3[nH]c(=O)[nH]c(=O)c3Cc3ccccc3)CC2)c(F)c1` (stereo not drawn) [Example 98]: affinity was put at a Ki of 110 nM.

`O=c1[nH]c(C2CC=C(c3cncs3)CC2)c(Cc2ccccc2)c(=O)[nH]1` (stereo not drawn) [Example 4] yielded a Ki of 1300 nM.

For `CCOc1ccc(C2=CCC(c3[nH]c(=O)[nH]c(=O)c3Cc3ccccc3)CC2)c(Cl)c1F` (stereo not drawn) [Example 90], the Ki came out at 746 nM.

`CC1(C)CCCN(c2ncccc2C2=CCC(c3[nH]c(=O)[nH]c(=O)c3Cc3ccccc3)CC2)C1` (stereo not drawn) [Example 46]: the Ki is 300 nM.

In the case of `C[C@H]1CCCN(c2ncccc2C2=CCC(c3[nH]c(=O)[nH]c(=O)c3Cc3ccccc3)CC2)C1` (stereo partly drawn) [Example 48], the Ki was 130 nM. Against the preceding compound, the Ki is about 2.3-fold lower.

As to `CN(C)S(=O)(=O)c1ccc(C2=CCC(c3[nH]c(=O)[nH]c(=O)c3Cc3ccccc3)CC2)c(F)c1` (stereo not drawn) [Example 99], the affinity corresponds to a Ki of 730 nM.

In turn, `O=c1[nH]c(C2CC=C(c3cccc(C(F)(F)F)c3Cl)CC2)c(Cc2ccccc2)c(=O)[nH]1` (stereo not drawn) [Example 36] returned a Ki of 110 nM.

For `Cc1ccc(CO)cc1C1=CCC(c2[nH]c(=O)[nH]c(=O)c2Cc2ccccc2)CC1` (stereo not drawn) [Example 22], the Ki was determined as 330 nM. This Ki lies about 3-fold higher than the previous one.

In the case of `COc1ccc(C#N)cc1C1=CCC(c2[nH]c(=O)[nH]c(=O)c2Cc2ccccc2)CC1` (stereo not drawn) [Example 23], the Ki turned out to be 330 nM.

Turning to `O=c1[nH]c(C2CC=C(c3cccc(Cl)c3)CC2)c(Cc2ccccc2)c(=O)[nH]1` (stereo not drawn) [Example 16], the Ki came to 640 nM. This Ki is about 1.9-fold higher than that of the compound before.

In turn, `CC(C)n1cc(C2=CCC(c3[nH]c(=O)[nH]c(=O)c3Cc3ccccc3)CC2)c(C(F)(F)F)n1` (stereo not drawn) [Example 75] gave a Ki of 223 nM.

In turn, `O=c1[nH]c(C2CC=C(c3ccc(OC4CC4)cc3F)CC2)c(Cc2ccccc2)c(=O)[nH]1` (stereo not drawn) [Example 94] registered a Ki of 200 nM.

In turn, `O=c1[nH]c(C2CC=C(c3ccc(F)cc3Cl)CC2)c(Cc2ccccc2)c(=O)[nH]1` (stereo not drawn) [Example 9] yielded a Ki of 26 nM.

The compound `N#Cc1cccc(C2=CCC(c3[nH]c(=O)[nH]c(=O)c3Cc3ccccc3)CC2)c1` (stereo not drawn) [Example 33] showed a Ki of 740 nM.

`CC(C)S(=O)(=O)c1ccc(C2=CCC(c3[nH]c(=O)[nH]c(=O)c3Cc3ccccc3)CC2)c(F)c1` (stereo not drawn) [Example 102] registered a Ki of 270 nM.

In turn, `COc1ccc(F)cc1C1=CCC(c2[nH]c(=O)[nH]c(=O)c2Cc2ccccc2)CC1` (stereo not drawn) [Example 12] registered a Ki of 350 nM.

Turning to `COc1ccc(C2=CCC(c3[nH]c(=O)[nH]c(=O)c3Cc3ccccc3)CC2)c(C(F)(F)F)c1` (stereo not drawn) [Example 17], the Ki amounted to 280 nM.

In the case of `O=c1[nH]c(C2CC=C(c3ccc(OCC4CC4)cc3Cl)CC2)c(Cc2ccccc2)c(=O)[nH]1` (stereo not drawn) [Example 85, 5-benzyl-6-(2′-chloro-4′-(cyclopropylmethoxy)-2,3,4,5-tetrahydro-[1,1′-biphenyl]-4-yl)pyrimidine-2,4(1H,3H)-dione], the Ki was 1400 nM.

Turning to `O=c1[nH]c(C2CC=C(c3ccc(OC(F)(F)F)cc3F)CC2)c(Cc2ccccc2)c(=O)[nH]1` (stereo not drawn) [Example 67], the affinity, expressed as Ki, was 120 nM.

Consider `O=c1[nH]c([C@@H]2CC=C(c3ccc(Cl)cc3C(F)(F)F)CC2)c(Cc2ccccc2)c(=O)[nH]1` (single isomer, unassigned) [Example 110], for which the Ki is 38 nM.

Take `CNS(=O)(=O)c1ccc(C2=CCC(c3[nH]c(=O)[nH]c(=O)c3Cc3ccccc3)CC2)c(C(F)(F)F)c1` (stereo not drawn) [Example 84]: the Ki was 259 nM.

Consider `O=c1[nH]c(C2CC=C(c3cccc(Cl)c3Cl)CC2)c(Cc2ccccc2)c(=O)[nH]1` (stereo not drawn) [Example 2], for which the affinity corresponds to a Ki of 99 nM.

For the compound `O=c1[nH]c(C2CC=C(c3cccnc3N3CCCCC3)CC2)c(Cc2ccccc2)c(=O)[nH]1` (stereo not drawn) [Example 43, 5-Benzyl-6-(4-(2-(piperidin-1-yl)pyridin-3-yl)cyclohex-3-en-1-yl)pyrimidine-2,4(1H,3H)-dione], affinity was put at a Ki of 150 nM.

Consider `O=c1[nH]c(C2CC=C(c3ccc(Cl)cc3F)CC2)c(Cc2ccccc2)c(=O)[nH]1` (stereo not drawn) [Example 81], for which the Ki amounted to 400 nM.

With `CS(=O)(=O)c1ccc(C2=CCC(c3[nH]c(=O)[nH]c(=O)c3Cc3ccccc3)CC2)c(F)c1` (stereo not drawn) [Example 73], the affinity, expressed as Ki, was 70 nM.

For `CS(=O)(=O)c1ccc(C2=CCC(c3[nH]c(=O)[nH]c(=O)c3Cc3ccccc3)CC2)c(C(F)(F)F)c1` (stereo not drawn) [Example 74], the Ki worked out at 264 nM.

Consider `Cn1cc(C2=CCC(c3[nH]c(=O)[nH]c(=O)c3Cc3ccccc3)CC2)c(C(F)(F)F)n1` (stereo not drawn) [Example 77], for which affinity was put at a Ki of 170 nM.

A further experiment has as its target T2, GR (Homo sapiens, UniProt P04150).
T2 sequence (P04150 1-777): T1 sequence (P04150 1-777)
Put plainly: GR binding.
Compound `O=c1[nH]c(C2CC=C(c3ccc(OCC4CC4)cc3C(F)(F)F)CC2)c(Cc2ccccc2)c(=O)[nH]1` (stereo not drawn) [Example 95] returned a 50% inhibitory concentration (IC50) of 23 nM.

`O=c1[nH]c(C2CC=C(c3ccc(OC4CC4)cc3Cl)CC2)c(Cc2ccccc2)c(=O)[nH]1` (stereo not drawn) [Example 93] yielded an IC50 of 10 nM.

As for `CCS(=O)(=O)c1cc(F)c(C2=CCC(c3[nH]c(=O)[nH]c(=O)c3Cc3ccccc3)CC2)c(F)c1` (stereo not drawn) [Example 105], the IC50 was 71.6 nM.

`O=c1[nH]c(C2CC=C(c3cnc(C(F)(F)F)nc3)CC2)c(Cc2ccccc2)c(=O)[nH]1` (stereo not drawn) [Example 72] yielded an IC50 of 1920 nM.
